# Laboratory results: publication PMC9645390, “Amphiphilic stilbene derivatives attenuate the neurotoxicity of soluble Aβ42 oligomers by controlling their interactions with cell membranes” (Chemical Science, 2022)
# Like-named read-outs stand apart in the source and are kept apart here.
# What was measured:
# Aβ42 oligomers = molecular target: T1, Aβ42 oligomers (Homo sapiens, UniProt P05067); test: Fluorescence saturation binding assay with Aβ42 oligomers; conditions: for Kd / binding ratio, Oligomers: Aβ42 oligomers; for Kd: 10 mM PBS pH 7.4, one site-specific binding model; for binding ratio, Oligomers: from cross point between plateau and initial slope; for binding preference oligomers vs fibrils (from Kd values): lower Kd for Aβ oligomers than Aβ fibrils
# T1 construct: 1 mg of commercial Aβ42 monomer powder (from GL biochem) was dissolved in 1; purchased GL biochem
# T1 sequence (P05067 672-713 limits assumed): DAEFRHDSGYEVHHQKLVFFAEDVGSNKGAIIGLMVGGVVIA
# Method: (§1) Fig. 3 Binding constant measurements of ZY-5-OMe (left), ZY-5-MT (middle), ZY-5-DT (right) with Aβ42 fibrils (top), and oligomers (bottom). The measurements were performed in 10 mM phosphate buffered saline (PBS), pH 7.4. The Kd curves were fitted in GraphPad Prism with one site-specific binding model. Equation: Y = Bmax × X/(Kd + X). [Aβ42 fibrils] = [Aβ42 oligomers] = 5 μM.
# (§2) Preparation of the Aβ42 Fibrils and Aβ42 Oligomers
# (§3) Aβ42 fibrils: 1 mg of commercial Aβ42 monomer powder (from GL biochem) was dissolved in 1
# (§4) mL 1,1,1,3,3,3-hexafluoro-2-propanol (HFIP) at room temperature and incubated for 1h. The
# (§5) resulting solution was divided equally into two Eppendorf tubes. The solution in each Eppendorf
# (§6) tube containing 0.5 mg Aβ42 monomer was then evaporated overnight and dried by vacuum
# (§7) centrifuge to generate monomeric films. 100 μM Aβ42 fibrils solution was prepared by dissolving
# (§8) the 0.5 mg monomeric films in 1.1 mL PBS buffer (with final DMSO concentration less than 1%)
# (§9) and stiring at 37 °C for 3 days.
# (§10) Aβ42 oligomers: The 0.5 mg monomeric films were dissolved in 1.1 mL PBS buffer (with final
# (§11) DMSO concentration less than 1%) and incubated at 4 °C overnight. The resulting solution was
# (§12) then centrifuged at 3000 rpm for 15 mins to remove the insoluble aggregates. The clear supernatant
# (§13) was then used for the following experiments. […]
# (§14) In Vitro Saturation Binding Studies with Aβ42 Fibrils and Aβ42 Oligomers
# (§15) To a solution of increasing concentrations of compounds, a fixed concentration of the generated
# (§16) aggregated Aβ42 fibrils or Aβ42 oligomers solutions (5 to 15 μM) was added to yield a total volume
# (§17) of 100 μL. Nonspecific binding was determined without compounds. The mixture was incubated
# (§18) for 15 min at room temperature. All fluorescence data were obtained on a SpectraMax M2e plate
# (§19) reader (Molecular Devices).
# [1] = Log D by octanol-PBS partition assay; format: physicochemical; conditions: pH 7.4, fluorescence readout
# Method: In order to confirm that the compounds can also bind to native Aβ species, brain sections collected from 9-month-old 5xFAD transgenic mice have been employed in the fluorescence imaging studies. […] The brain sections were first incubated with our compounds, followed by Congo Red (CR), which is a well-established fluorescent probe that can bind to Aβ plaques.[34] The treated brain sections were then imaged using fluorescence microscope. […] Immunostaining with the CF594-conjugated HJ 3.4 antibody (CF594-HJ3.4) was also performed to confirm that these six compounds can bind to Aβ species specifically in the brain sections (Fig. 5). Moreover, the log D values of the compounds were also measured by octanol-PBS partition assays.[35] […]
# The Log D value was measured following a published procedure using slight modifications.4 In general, compounds in 0.5 mL octanol was subjected to partition with 0.5 mL octanol-saturated
# PBS. The whole mixture was stirred vigorously for 5 min, and centrifuged at 2,000 rpm for 5 min.
# The top octanol layer was separated for later fluorescence measurement. The remaining PBS layer was partitioned with 0.5 mL PBS-saturated octanol, and the second top octanol layer was then separated after vigorous stirring and centrifuging at 2,000 rpm for another 5 min. The two octanol layers’ fluorescence spectra were recorded. The log D value was calculated by the fluorescence intensity ratio at the compounds’ emission wavelength for the above two octanol extractions. […]
# Aβ42 fibrils = molecular target: T2, Aβ42 fibrils (Homo sapiens, UniProt P05067); test: Fluorescence saturation binding assay with Aβ42 fibrils; conditions: for binding ratio, Fibrils: from cross point between plateau and initial slope
# T2 construct: 1 mg of commercial Aβ42 monomer powder (from GL biochem) was dissolved in 1; purchased GL biochem
# T2 sequence (P05067 672-713 limits assumed): as above
# Method: as §1, §2, §3, §4, §5, §6, §7, §8, §9, §10, §11, §12, §13, §14, §15, §16, §17, §18, §19
# [2] = molecular target: T3, Aβ plaques in 5xFAD mice brain sections (Homo sapiens, UniProt P05067); test: Fluorescence imaging of 5xFAD mouse brain sections, colocalization with Congo Red; conditions: 9-month-old 5xFAD brain sections; compound 5 μM, Congo red 2.5 μM
# T3 construct: aggregated Aβ species were commonly observed in brain sections from 5xFAD transgenic mice; tissue Jackson Laboratories; host or cells: brain sections of 9-month-old 5xFAD transgenic mice
# T3 sequence (P05067 672-713 limits assumed): as above
# Method: In order to confirm that the compounds can also bind to native Aβ species, brain sections collected from 9-month-old 5xFAD transgenic mice have been employed in the fluorescence imaging studies. […] The brain sections were first incubated with our compounds, followed by Congo Red (CR), which is a well-established fluorescent probe that can bind to Aβ plaques.[34] The treated brain sections were then imaged using fluorescence microscope. […] Immunostaining with the CF594-conjugated HJ 3.4 antibody (CF594-HJ3.4) was also performed to confirm that these six compounds can bind to Aβ species specifically in the brain sections (Fig. 5). Moreover, the log D values of the compounds were also measured by octanol-PBS partition assays.[35]
# Fig. 4 Fluorescence microscopy images of 5xFAD mice brain sections co-incubated with amphiphilic compounds (top), Congo red (middle) and merged images (bottom, along with the Parson's correlation coefficients R). Concentrations: [amphiphilic compounds] = 5 μM, [Congo red] = 2.5 μM; scale bar: 125 μm. TEXT PRINTED IN THE PICTURE: ZY-5-MT: Merged R= 0.84 | ZY-12-DT: Merged R= 0.52 | ZY-12-OMe: Merged R= 0.77 | ZY-15-OMe: Merged R= 0.77 | ZY-17-DT: Merged R= 0.77 | ZY-17-OMe: Merged R= 0.72 […]
# Histological Staining of 5×FAD Mice Brain Sections
# 5xFAD transgenic mice brain sections were blocked with bovine serum albumin (2% BSA in PBS, pH 7.4, 10 min). Then the mice brain sections were transferred to a PBS solution of the compound and incubated for 1 h. After which, the brain sections were transferred to a PBS solution of Congo Red or antibody HJ 3.4 (Professor David Holtzman, 1 μg/ml) and incubated for another 1 h. Then, the brain sections were treated with BSA again (5 min) followed by washing with PBS (3 × 2 min), DI water (3 × 2 min). Finally, the mice brain sections were mounted with non-fluorescent mounting media, and the images were obtained by using EVOS FL Auto 2. ImageJ Fiji program was used for colocalization analysis and determination of the Pearson’s correlation coefficient. The primary
# [3] = Alamar Blue cytotoxicity assay in N2a cells; format: cell-based, mouse; conditions: mouse, N2a (Neuro2A) neuroblastoma cells, up to 10 μM, 40 h, read-out: cell viability
# Method: (§20) After confirming these amphiphilic compounds can bind to Aβ species both in vitro and ex vivo, we next investigated whether these compounds could attenuate the toxicity of the Cu–Aβ species, as the Cu^2+ ions were reported to promote the formation of neurotoxic soluble Aβ42 oligomers.[45,46] Firstly, the Alamar Blue cell viability assay was used to measure the cytotoxicity of the compounds at different concentrations ranging from 20 μM to 2 μM in mouse neuroblastoma N2a cells (Fig. 8). […] Considering its high binding affinity to both Aβ fibrils and oligomers, we also further tested its ability to alleviate Cu^2+–Aβ42-induced toxicity. […] The underlying mechanism is unclear, but we propose that these compounds might perform similarly to the toxic oligomers that bind to some cell membrane receptors or insert into the membrane lipids to form porous channels.
# (§21) Alamar Blue assay was chosen for the cytotoxicity studies.3 Mouse neuroblastoma Neuro2A (N2A) cells were grown with DMEM/10% FBS in a petri dish at 37 °C in a humidified atmosphere with 5% CO2. Then N2A cells were seeded in a 96-well plate (1.0 × 10^4/well). After 24 h incubation, cell media was changed to DMEM/N-2, and N2A cells were incubated for another 1 h. Then the cells were treated with different concentrations of compounds for 40 h, Alamar Blue solution (10 μL) was added, and the cells were incubated for another 90 min at 37 °C. The fluorescence intensity of each well was measured at 590 nm (excitation wavelength = 560 nm).
# (§22) For the Cu2+-Aβ-induced toxicity studies, cells were treated monomeric Aβ42, Cu2+, monomeric Aβ42 + Cu2+, and monomeric Aβ42 + Cu2+ + compounds, monomeric Aβ42 + Cu2+ + copper chelators (Me2HTACN or Me3TACN), respectively. After 40 h incubation, Alamar Blue solution (10 μL) was added, and the cells were incubated for another 90 min at 37 °C. The fluorescence intensity of each well was measured at 590 nm (excitation wavelength = 560 nm). […]
# [4] = test system: Cu2+–Aβ42 species in Neuro2A cells; test: Cu2+-Aβ42-induced toxicity in Neuro2A cells (Alamar Blue); format: cell-based, mouse; conditions: [Aβ42] = [Cu2+] = 40 μM, compound 10 μM (ZY-12-OMe 5 μM), 40 h
# Method: As mentioned above, compounds that are not cytotoxic at 10 μM, including ZY-12-MT, ZY-15-MT, ZY-15-OMe, ZY-17-MT, ZY-5-MT, ZY-5-DT, ZY-5-OMe, and ZY-12-OMe, were chosen for this study. Firstly, during the control studies, we observed that monomeric Aβ42 led to negligible neurotoxicity. Nevertheless, in the presence of both Cu^2+ and monomeric Aβ42, there was a significant cell death, which is likely due to the Cu^2+ associated neurotoxic Aβ42 oligomers formation.[46] […] According to the docking results, ZY-12-MT, ZY-15-OMe, ZY-15-MT, and ZY-5-OMe interact with Aβ42 tetramers mainly through residues His6, Asp7, Tyr10 (via hydrogen bonds), and Tyr10 (via π–π interactions). Some reports have also shown that His6, Asp7, and Tyr10 are potentially involved in the Cu–Aβ interactions, which explains why the compounds are able to attenuate the Cu–Aβ toxicity.[48]
# Fig. 9 Cell viability results upon incubation of Neuro2A cells with monomeric Aβ42 in the presence or absence of metal ions and amphiphilic compounds. Concentrations: [Aβ42] = 40 μM, [Cu^2+] = 40 μM, [ZY-12-MT] = [ZY-15-OMe] = [ZY-15-MT] = [ZY-17-MT] = [ZY-5-OMe] = [ZY-5-MT] = [ZY-5-DT] = 10 μM, [ZY-12-OMe] = 5 μM. The error bars represent the standard deviation from five independent experiments, and the statistical analysis was evaluated according to one-way ANOVA (*p < 0.05).
# Alamar Blue assay was chosen for the cytotoxicity studies.3 Mouse neuroblastoma Neuro2A (N2A) cells were grown with DMEM/10% FBS in a petri dish at 37 °C in a humidified atmosphere with 5% CO2. Then N2A cells were seeded in a 96-well plate (1.0 × 10^4/well). After 24 h incubation, cell media was changed to DMEM/N-2, and N2A cells were incubated for another 1 h. […]
# as §22
# 10. The effect of copper chelators on Cu2+-Aβ42 neurotoxicity
# Figure S8. Cell viability results upon incubation of Neuro2A cells with 10 μM copper chelators (Me2HTACN or Me3TACN) in the presence or absence of 40 μM (Aβ42 + Cu2+). The error bars represent the standard deviation from five independent experiments, and the statistical analysis was evaluated according to one-way ANOVA. […]
# [5] = test system: mouse neuroblastoma N2a cells; test: Alamar Blue cytotoxicity assay in N2a cells; format: cell-based; conditions: 2 to 20 μM
# Method: as §20, §21, §22
# [6] = Aβ42 fibrils, 10 mM PBS pH 7.4, one site-specific binding model, read-out: Kd, Fibrils
SMILES,Kd (Aβ42 oligomers),"binding ratio, Oligomers (Aβ42 oligomers)",logD [1],Kd (Aβ42 fibrils; [6]),"binding ratio, Fibrils (Aβ42 fibrils; Aβ42 fibrils)",selectivity to Aβ oligomers (times higher than that for Aβ fibrils) (Aβ42 oligomers; from Kd values fibrils vs oligomers),binding preference oligomers vs fibrils (from Kd values) (Aβ42 oligomers),"Pearson's correlation coefficient R, colocalization with Congo Red [2]",viability at 40 h [3],"Kd (Aβ42 fibrils; another trial, [Aβ42 fibrils] = 5 μM, PBS pH 7.4 (Fig. S5), read-out: Kd, Aβ42 fibrils, another trial)","effect on Cu2+–Aβ42-induced toxicity (cell viability, in words) [4]",cytotoxicity (in words) [5]
CN1CCN(C)CCN(Cc2cc(/C=C/c3ccc(-c4ccc(C=O)cc4)s3)cc(CN3CCN(C)CCN(C)CC3)c2O)CC1 [ZY-15-DT],4.55 µM,1.2,1.16 ± 0.026,1.27 µM,2.9,,,,,,,
CN1CCN(C)CCN(Cc2cc(/C=C/c3ccc(-c4ccc(N(C)C)cc4)s3)ccc2O)CC1 [ZY-5-MT],0.46 µM,4.9,0.997 ± 0.031,1.82 µM,2.1,3.9 times,higher binding affinity to oligomers over fibrils,0.84,> 80%,1.43 µM,,
CN1CCN(C)CCN(Cc2cc(/C=C/c3ccc(-c4ccc(N(C)C)cc4)s3)cc(CN3CCN(C)CCN(C)CC3)c2O)CC1 [ZY-5-DT],2.09 µM,1.7,1.03 ± 0.122,1.67 µM,1.6,,,,> 80%,,,
"CN1CCNCCN(C)CC1 [Me2HTACN, 1,4-dimethyl-1,4,7-triazacyclononane, reference compound]",,,,,,,,,,,not able to alleviate the neurotoxicity,
"CN1CCN(C)CCN(C)CC1 [Me3TACN, 1,4,7-trimethyl-1,4,7-triazacyclononane, reference compound]",,,,,,,,,,,not able to alleviate the neurotoxicity,
CN1CCN(C)CCN(Cc2cc(-c3ccc(/C=C/c4ccc(N(C)C)cc4)s3)cc(CN3CCN(C)CCN(C)CC3)c2O)CC1 [ZY-12-DT],0.67 µM,3.7,1.13 ± 0.045,1.38 µM,3.5,,higher binding affinity to oligomers over fibrils,0.52,,,,higher cytotoxicity than others
COc1cc(OC)cc(-c2ccc(/C=C/c3ccc(O)c(CN4CCN(C)CCN(C)CC4)c3)cc2)c1 [ZY-17-MT],2.08 µM,2.0,0.81 ± 0.079,0.94 µM,5.5,,,,> 80%,,,
